From paper PMC7246325 (Drug Design, Development and Therapy, 2020)
Like-named read-outs stand apart in the source and are kept apart here.

Assays:
CYP3A4 [1] = details: among human CYP450 isoenzymes; cited from earlier work
CYP2C9 [2] = details: among human CYP450 isoenzymes; cited from earlier work
[3] = cancer patients; cited from earlier work
Safety assessment = assay type: in vivo, patients with advanced solid tumors; details: 23 patients
CYP3A4 [4] = target: T1, CYP3A4 (Homo sapiens, UniProt P08684); experiment: In vitro CYP3A4 inhibition; assay type: biochemical
CYP3A4 [5] = target: T1, CYP3A4; experiment: Predicted AUC ratios for CYP3A4 substrates; details: dose (750 mg)/250 mL
CYP3A4 [6] = target: T1, CYP3A4; experiment: In vitro CYP3A4 inhibition; assay type: biochemical; remark: listed apart in the source
CYP2C9 [7] = target: CYP2C9 (Homo sapiens, UniProt P11712); experiment: In vitro CYP2C9 inhibition; assay type: biochemical
[8] = warfarin 3 mg, apatinib 750 mg daily, vs single administration
[9] = any grade, 750 mg apatinib daily

T1 sequence (P08684 whole entry): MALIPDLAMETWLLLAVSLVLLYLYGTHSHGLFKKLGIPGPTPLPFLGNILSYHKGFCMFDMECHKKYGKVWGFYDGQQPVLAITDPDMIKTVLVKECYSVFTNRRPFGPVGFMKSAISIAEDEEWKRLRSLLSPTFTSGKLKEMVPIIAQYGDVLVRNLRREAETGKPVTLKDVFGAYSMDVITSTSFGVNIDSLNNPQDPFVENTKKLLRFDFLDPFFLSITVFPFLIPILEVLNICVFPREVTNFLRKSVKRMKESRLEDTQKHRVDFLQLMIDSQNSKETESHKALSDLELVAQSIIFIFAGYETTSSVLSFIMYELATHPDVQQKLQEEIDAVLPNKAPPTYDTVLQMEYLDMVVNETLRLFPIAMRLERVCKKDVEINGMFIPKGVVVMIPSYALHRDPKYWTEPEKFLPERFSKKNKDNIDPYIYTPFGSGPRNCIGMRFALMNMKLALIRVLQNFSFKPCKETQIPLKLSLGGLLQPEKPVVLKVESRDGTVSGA
Chain of CYP2C9 (Homo sapiens, UniProt P11712) (P11712 whole entry): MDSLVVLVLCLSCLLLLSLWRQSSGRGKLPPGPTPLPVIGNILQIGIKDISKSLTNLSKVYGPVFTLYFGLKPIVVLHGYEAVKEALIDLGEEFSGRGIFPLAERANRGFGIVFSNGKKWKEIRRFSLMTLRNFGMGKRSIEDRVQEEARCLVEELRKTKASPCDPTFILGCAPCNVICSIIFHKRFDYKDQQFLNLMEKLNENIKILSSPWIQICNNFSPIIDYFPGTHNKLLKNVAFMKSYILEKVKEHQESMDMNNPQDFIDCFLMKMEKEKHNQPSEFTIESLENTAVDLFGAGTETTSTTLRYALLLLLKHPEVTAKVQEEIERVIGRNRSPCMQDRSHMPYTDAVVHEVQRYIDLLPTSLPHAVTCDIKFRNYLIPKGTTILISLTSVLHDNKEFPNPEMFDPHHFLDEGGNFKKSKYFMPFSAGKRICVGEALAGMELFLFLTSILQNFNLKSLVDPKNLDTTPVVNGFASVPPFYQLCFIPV

CC(=O)C[C@@H](c1ccccc1)c1c(O)c2ccccc2oc1=O [S-Warfarin, S-warfarin]
AUC0-∞ (3 mg warfarin oral + 750 mg apatinib daily, N=20, GMean (CV%)): 12600 (35.0) h×ng/mL | Tmax (3 mg warfarin oral + 750 mg apatinib daily, N=20, median (range)): 1.00 (0.500–3.00) h | AUC0-∞ (3 mg warfarin oral, alone, N=23, GMean (CV%)): 5190 (26.8) h×ng/mL | Tmax (3 mg warfarin oral, alone, N=23, median (range)): 0.500 (0.500–3.00) h | Difference of Tmax before and after coadministration of apatinib (S-warfarin, Wilcoxon signed-rank test): no significant difference | Increase of AUC0–t (exposure) on coadministration with apatinib [8]: 92% | Increase of Cmax on coadministration with apatinib [8]: 24%

N#CC1(c2ccc(NC(=O)c3cccnc3NCc3ccncc3)cc2)CCCC1 [apatinib]
Contribution of CYP3A4 to the in vitro (oxidative) metabolism (CYP3A4 [1]): 62.6% | Contribution of CYP2C9 to the oxidative metabolism (CYP2C9 [2]): 13.1% | t1/2 [3]: 8.01 to 10.2 h | Incidence of bilirubin increased (adverse event related to apatinib) (Safety assessment; [9]): 21.7% | Incidence of fatigue (adverse event related to apatinib) (Safety assessment; [9]): 21.7% | Incidence of hand-foot syndrome (adverse event related to apatinib) (Safety assessment; [9]): 17.4% | Incidence of headache (adverse event related to apatinib) (Safety assessment; [9]): 47.8% | Incidence of hypertension (adverse event related to apatinib) (Safety assessment; [9]): 73.9% | Incidence of leukopenia (adverse event related to apatinib) (Safety assessment; [9]): 21.7% | Incidence of proteinuria (adverse event related to apatinib) (Safety assessment; [9]): 26.1% | Incidence of thrombocytopenia (adverse event related to apatinib) (Safety assessment; [9]): 30.4% | Incidence of grade 3/4 drug-related hypertension (Safety assessment; grade 3/4, 750 mg apatinib daily): 17.4% | IC50 (CYP3A4 [4]): 830 nM | Ki (CYP3A4 [4]): 270 nM | Igut (CYP3A4 [5]): 6078 µM | IC50 (CYP3A4 [6]): 1800 nM | Ki (CYP3A4 [6]): 710 nM | IC50 (CYP2C9 [7]): 440 nM | Ki (CYP2C9 [7]): 310 nM
